Reference: ChEMBL document CHEMBL1201862, “PubChem BioAssay data set” (2004)
Activity calls are given as the source filed them.

Tests used:
[1] = molecular target: T1, High affinity choline transporter 1 (Homo sapiens, UniProt Q9GZV3); assay: CHT inhibitors, dose response, cell-based, 5-point CRC, membrane potential dye (AID 504840); format: functional
T1 sequence (Q9GZV3 whole entry): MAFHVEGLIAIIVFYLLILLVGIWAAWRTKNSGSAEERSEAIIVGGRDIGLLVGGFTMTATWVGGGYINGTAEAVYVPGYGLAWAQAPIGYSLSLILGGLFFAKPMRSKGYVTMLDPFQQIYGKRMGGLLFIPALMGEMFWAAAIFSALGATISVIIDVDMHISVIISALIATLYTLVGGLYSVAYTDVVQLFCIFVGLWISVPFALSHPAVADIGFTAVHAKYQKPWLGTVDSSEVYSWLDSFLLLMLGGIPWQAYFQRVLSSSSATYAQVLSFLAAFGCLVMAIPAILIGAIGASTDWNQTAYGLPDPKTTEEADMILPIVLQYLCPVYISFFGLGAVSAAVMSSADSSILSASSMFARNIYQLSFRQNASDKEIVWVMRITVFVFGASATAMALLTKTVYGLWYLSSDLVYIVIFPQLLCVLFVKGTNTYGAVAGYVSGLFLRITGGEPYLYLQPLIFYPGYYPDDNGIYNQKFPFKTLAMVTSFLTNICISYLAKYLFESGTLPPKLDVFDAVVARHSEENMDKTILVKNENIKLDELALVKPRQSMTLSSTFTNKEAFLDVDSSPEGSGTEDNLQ

[2] = molecular target: Peroxisome proliferator-activated receptor gamma/Nuclear receptor coactivator 1 (Homo sapiens, UniProt P37231); assay: TR-FRET dose response biochemical High Throughput Screening assay for agonists of the steroid receptor coactivator 1 (SRC-1) recruitment by the peroxisome proliferator-activated receptor gamma (PPAR gamma): non-selective agonists. [Related pubchem assays (depositor defined):AID1300, AID1808, AID504735, AID631]; format: protein assay
[3] = molecular target: Peroxisome proliferator-activated receptor gamma/Nuclear receptor coactivator 2 (Homo sapiens, UniProt P37231); assay: (§1) TR-FRET dose response biochemical High Throughput Screening assay for agonists of the steroid receptor coactivator 2 (SRC-2) recruitment by the peroxisome proliferator-activated receptor gamma (PPAR gamma): non-selective agonists. [Related pubchem assays: 1297, 1032 ]; format: functional
[4] = molecular target: Peroxisome proliferator-activated receptor gamma/Nuclear receptor coactivator 3 (Homo sapiens, UniProt P37231); assay: as §1, with “3 (SRC-3)” for “2 (SRC-2)”, “1301 (Confirmation screen.), 1048 (Primary screen.)]” for “1297, 1032 ]”; format: functional
Coagulation factor XII = molecular target: T2, Coagulation factor XII (Homo sapiens, UniProt P00748); format: functional;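 also: activated factor XIIa alpha cleaving a fluorogenic AMC peptide substrate; inhibitor potency from loss of enzyme activity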
T2 sequence (P00748 whole entry): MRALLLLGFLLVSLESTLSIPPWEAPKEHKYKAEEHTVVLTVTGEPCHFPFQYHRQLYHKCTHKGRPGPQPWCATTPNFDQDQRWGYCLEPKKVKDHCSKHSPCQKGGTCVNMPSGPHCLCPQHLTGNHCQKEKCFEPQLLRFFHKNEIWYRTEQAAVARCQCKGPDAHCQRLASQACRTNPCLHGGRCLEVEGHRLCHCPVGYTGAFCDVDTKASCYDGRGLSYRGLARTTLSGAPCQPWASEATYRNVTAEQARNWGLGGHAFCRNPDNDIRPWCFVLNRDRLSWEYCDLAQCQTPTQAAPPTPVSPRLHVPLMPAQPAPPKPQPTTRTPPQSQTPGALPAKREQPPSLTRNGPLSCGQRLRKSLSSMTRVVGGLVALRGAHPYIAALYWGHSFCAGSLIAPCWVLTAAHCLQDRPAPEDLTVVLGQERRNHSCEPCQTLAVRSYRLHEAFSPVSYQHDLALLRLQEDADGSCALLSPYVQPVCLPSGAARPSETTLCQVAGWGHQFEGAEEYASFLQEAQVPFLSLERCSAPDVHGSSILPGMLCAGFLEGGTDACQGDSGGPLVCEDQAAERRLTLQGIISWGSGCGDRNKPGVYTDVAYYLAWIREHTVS

Cytochrome P450 3A4 [5] = molecular target: T3, Cytochrome P450 3A4 (Homo sapiens, UniProt P08684);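 also: CYP3A4 tested as one member of a cytochrome P450 panel screen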
[6] = molecular target: T4, Carboxy-terminal domain RNA polymerase II polypeptide A small phosphatase 1 (Homo sapiens, UniProt Q9GZU7); assay: inhibitors of CTDSP1, concentration-response testing, biochemical assay, absorbance-based, actives from ultra-high-throughput screening (AID 540297); format: functional
T4 sequence (Q9GZU7 whole entry): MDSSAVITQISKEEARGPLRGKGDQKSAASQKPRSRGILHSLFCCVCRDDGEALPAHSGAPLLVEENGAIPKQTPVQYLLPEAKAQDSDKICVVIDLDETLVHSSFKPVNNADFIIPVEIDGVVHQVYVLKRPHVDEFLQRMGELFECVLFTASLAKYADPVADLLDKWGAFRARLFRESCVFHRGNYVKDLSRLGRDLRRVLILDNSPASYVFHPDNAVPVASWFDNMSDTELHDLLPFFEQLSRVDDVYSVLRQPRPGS

Cytochrome P450 2C9 = Cytochrome P450 2C9 (Homo sapiens, UniProt P11712)
cells [7] = format: functional, cell-based
cells [8] = format: functional, cell-based; remark: listed apart in the source
HEK293 [9] = assay: cells; format: functional, cell-based; settings: Homo sapiens
HEK293 [10] = assay: NOD2 signaling inhibitors in MDP-stimulated cells, cell-based, uHTS, luminescence (AID 2001); format: functional; settings: Homo sapiens
HEK293 [11] = assay: NOD1 signaling inhibitors, primary screen, cell-based, luminescence, uHTS (AID 1578); format: functional; settings: Homo sapiens
HEK293 [12] = assay: cells; format: functional, cell-based; settings: Homo sapiens; remark: listed apart in the source
Cytochrome P450 2D6 = Cytochrome P450 2D6 (Homo sapiens, UniProt P10635);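 also: CYP2D6 member of a cytochrome P450 panel assay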
Cytochrome P450 3A4 [13] = molecular target: T3, Cytochrome P450 3A4; remark: listed apart in the source
Cytochrome P450 1A2 = molecular target: T5, Cytochrome P450 1A2 (Homo sapiens, UniProt P05177);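 also: PubChem cytochrome P450 panel assay, CYP1A2 panel member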
T5 sequence (P05177 whole entry): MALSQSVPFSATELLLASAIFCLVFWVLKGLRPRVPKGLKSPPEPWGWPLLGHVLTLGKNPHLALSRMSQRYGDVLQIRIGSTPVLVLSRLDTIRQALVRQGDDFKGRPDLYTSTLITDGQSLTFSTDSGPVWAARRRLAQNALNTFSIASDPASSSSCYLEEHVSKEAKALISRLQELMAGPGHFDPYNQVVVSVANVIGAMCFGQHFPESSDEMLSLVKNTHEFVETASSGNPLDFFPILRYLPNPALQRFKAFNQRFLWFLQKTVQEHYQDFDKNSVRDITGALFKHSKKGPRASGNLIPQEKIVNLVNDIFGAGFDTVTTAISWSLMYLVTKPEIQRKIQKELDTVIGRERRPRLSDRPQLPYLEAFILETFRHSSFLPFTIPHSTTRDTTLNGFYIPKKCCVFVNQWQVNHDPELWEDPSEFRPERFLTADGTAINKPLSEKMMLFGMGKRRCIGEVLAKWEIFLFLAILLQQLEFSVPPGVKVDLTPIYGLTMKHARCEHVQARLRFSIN

Cytochrome P450 2C19 = Cytochrome P450 2C19 (Homo sapiens, UniProt P33261); assay: Cytochrome panel assay with activity outcomes. Panel member name: p450-cyp2c19 Compounds with AC50 equal or less than 10 uM are considered active; format: functional
[14] = molecular target: T6, Heat shock factor protein 1 (Mus musculus, UniProt P38532); assay: HSF1 potentiators in luciferase reporter cells, confirmation, cell-based, NIH3T3, luminescence, dose retest (AID 435004); format: functional;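 also: stress induced by proteasome inhibitor MG132 added 30 min after compound; luciferase reporter driven by HSF1 response element in NIH3T3 cells; actives raise luminescence as potentiators of the MG132 stress response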
T6 sequence (P38532 whole entry): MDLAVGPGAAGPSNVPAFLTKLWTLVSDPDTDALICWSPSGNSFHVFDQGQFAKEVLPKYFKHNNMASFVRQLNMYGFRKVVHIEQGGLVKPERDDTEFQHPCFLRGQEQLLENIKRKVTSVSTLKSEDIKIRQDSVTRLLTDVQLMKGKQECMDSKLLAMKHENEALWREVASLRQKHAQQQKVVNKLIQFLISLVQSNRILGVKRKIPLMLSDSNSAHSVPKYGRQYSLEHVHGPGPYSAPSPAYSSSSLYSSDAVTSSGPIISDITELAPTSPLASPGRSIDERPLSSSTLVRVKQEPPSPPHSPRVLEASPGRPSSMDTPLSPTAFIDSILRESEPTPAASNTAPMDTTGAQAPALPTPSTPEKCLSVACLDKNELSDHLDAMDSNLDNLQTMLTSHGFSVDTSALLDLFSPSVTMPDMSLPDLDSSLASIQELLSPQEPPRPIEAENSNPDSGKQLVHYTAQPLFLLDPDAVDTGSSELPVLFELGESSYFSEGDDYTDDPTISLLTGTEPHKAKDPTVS

Cytochrome P450 2C9, sequence (P11712 whole entry): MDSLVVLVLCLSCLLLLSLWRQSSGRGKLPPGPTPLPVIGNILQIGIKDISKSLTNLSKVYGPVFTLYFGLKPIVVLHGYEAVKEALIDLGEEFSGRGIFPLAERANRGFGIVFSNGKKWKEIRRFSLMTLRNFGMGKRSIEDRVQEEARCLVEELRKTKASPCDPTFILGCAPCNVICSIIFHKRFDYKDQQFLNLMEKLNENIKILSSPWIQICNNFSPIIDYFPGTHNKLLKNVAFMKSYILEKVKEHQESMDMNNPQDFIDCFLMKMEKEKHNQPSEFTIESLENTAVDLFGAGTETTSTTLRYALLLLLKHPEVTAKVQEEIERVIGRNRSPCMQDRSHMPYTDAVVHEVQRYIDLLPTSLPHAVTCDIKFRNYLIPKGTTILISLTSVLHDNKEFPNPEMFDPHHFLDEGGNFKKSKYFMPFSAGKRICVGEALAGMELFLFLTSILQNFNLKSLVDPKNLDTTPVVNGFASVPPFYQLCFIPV
T3 sequence (P08684 whole entry, the tested form may be a part): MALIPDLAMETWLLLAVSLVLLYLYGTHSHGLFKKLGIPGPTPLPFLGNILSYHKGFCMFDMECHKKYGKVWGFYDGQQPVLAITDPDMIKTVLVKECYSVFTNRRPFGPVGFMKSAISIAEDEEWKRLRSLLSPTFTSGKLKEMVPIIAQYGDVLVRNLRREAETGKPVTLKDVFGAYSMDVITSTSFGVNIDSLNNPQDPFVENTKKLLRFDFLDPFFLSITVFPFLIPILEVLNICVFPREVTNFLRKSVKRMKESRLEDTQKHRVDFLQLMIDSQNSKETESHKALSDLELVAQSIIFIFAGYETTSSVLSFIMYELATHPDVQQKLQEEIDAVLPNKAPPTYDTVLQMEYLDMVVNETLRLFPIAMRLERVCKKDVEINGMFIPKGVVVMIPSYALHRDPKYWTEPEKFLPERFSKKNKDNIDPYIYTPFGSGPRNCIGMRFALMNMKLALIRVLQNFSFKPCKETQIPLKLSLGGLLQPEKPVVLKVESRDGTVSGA
Cytochrome P450 2C19, sequence (P33261 whole entry): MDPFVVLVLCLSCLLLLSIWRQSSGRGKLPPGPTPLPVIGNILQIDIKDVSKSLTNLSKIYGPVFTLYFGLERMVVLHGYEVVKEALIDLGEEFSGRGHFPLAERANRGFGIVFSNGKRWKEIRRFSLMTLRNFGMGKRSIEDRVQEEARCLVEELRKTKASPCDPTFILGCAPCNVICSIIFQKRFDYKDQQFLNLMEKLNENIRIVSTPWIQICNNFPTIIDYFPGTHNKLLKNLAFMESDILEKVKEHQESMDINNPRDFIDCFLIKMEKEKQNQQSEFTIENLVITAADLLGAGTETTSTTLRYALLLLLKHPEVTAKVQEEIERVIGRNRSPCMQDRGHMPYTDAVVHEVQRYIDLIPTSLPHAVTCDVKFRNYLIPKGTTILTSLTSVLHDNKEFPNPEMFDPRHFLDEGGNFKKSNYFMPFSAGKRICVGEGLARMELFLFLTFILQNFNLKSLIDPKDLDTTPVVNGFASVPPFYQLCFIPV
Cytochrome P450 2D6, sequence (P10635 whole entry): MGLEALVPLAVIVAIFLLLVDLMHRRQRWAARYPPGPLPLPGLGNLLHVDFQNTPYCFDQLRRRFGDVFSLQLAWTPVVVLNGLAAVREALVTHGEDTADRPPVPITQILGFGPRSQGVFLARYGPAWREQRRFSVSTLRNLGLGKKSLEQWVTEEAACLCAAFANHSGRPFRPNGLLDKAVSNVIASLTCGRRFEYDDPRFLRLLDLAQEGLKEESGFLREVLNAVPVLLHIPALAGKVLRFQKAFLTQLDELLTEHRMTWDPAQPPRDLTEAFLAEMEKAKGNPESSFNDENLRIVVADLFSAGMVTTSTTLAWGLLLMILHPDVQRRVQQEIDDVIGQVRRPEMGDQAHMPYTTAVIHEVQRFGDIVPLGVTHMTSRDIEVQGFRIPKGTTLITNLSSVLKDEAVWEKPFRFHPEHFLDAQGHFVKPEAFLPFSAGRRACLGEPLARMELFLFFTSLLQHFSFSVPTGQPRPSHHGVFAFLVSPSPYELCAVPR
Peroxisome proliferator-activated receptor gamma/Nuclear receptor coactivator 3, sequence (P37231 whole entry): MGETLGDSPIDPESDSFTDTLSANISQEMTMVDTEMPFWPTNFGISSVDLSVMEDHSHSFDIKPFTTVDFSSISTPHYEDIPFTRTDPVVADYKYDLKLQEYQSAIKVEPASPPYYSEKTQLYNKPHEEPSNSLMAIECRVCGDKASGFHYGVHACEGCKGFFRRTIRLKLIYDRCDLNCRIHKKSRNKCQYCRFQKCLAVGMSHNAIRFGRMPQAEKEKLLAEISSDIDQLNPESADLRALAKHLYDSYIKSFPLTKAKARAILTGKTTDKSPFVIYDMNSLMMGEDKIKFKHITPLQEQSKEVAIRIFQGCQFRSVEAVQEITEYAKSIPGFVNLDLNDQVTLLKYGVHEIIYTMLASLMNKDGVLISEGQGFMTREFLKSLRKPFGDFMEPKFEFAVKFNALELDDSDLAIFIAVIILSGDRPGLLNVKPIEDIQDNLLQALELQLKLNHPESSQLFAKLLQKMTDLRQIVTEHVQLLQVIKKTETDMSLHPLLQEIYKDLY
Peroxisome proliferator-activated receptor gamma/Nuclear receptor coactivator 3, sequence (Q9Y6Q9 whole entry, further chain): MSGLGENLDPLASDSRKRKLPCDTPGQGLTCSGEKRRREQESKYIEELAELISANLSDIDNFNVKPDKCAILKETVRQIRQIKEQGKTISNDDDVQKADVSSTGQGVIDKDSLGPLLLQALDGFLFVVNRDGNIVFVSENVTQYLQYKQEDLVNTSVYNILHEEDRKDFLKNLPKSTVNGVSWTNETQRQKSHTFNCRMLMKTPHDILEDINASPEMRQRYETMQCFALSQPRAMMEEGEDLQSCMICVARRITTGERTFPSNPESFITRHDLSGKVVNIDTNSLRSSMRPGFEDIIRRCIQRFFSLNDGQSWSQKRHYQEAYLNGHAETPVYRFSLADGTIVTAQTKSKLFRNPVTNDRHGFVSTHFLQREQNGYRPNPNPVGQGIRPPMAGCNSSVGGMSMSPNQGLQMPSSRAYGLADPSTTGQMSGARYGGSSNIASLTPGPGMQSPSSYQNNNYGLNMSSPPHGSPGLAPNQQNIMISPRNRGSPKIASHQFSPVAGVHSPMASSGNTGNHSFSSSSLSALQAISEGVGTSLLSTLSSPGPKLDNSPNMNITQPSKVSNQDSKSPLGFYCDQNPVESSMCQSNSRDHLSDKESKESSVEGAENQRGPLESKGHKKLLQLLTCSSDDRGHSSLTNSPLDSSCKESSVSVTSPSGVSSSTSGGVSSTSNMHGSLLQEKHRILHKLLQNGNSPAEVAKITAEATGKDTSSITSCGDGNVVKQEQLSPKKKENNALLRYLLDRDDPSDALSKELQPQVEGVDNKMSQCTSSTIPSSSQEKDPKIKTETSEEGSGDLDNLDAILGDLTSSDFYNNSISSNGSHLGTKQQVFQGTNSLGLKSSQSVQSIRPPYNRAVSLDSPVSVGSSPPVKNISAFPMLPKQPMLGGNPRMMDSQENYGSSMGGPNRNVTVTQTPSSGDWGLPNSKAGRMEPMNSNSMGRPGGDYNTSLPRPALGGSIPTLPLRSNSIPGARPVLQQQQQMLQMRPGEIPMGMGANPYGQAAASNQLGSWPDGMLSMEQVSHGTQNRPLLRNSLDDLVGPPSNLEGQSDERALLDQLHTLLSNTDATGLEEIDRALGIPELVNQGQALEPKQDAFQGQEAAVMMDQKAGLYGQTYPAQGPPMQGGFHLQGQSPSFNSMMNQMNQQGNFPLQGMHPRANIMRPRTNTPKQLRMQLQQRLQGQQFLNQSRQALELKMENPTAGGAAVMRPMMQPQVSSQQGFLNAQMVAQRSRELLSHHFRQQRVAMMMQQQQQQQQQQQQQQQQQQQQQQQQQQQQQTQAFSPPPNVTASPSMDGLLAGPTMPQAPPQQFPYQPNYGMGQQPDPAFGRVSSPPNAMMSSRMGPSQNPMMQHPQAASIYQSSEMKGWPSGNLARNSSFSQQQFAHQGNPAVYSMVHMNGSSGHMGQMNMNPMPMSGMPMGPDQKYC

Q: Which results are given for `COc1ccc(-c2nc(-c3cccs3)c(-c3cccs3)[nH]2)cc1O`?
A: IC50 [1]: 20 µM (active); EC50 [2]: 4.8 µM (active); EC50 [3]: 4.79 µM (active); EC50 [4]: 79.6 µM (not active)

Q: With `COC(=O)c1[nH]c(C)c(C(=O)C2=C(O)C(=O)N(CCN(C)C)C2c2cccc(OC)c2OC)c1C` (stereo not given) as the compound, how does the IC50 (Coagulation factor XII) read?
A: > 50 µM (inactive)

Q: Which AC50 (Cytochrome P450 3A4 [5]) does the source give for `O=C(NNC(=O)c1cc2cc3ccccc3nc2s1)c1cccc(C(F)(F)F)c1` here?
A: 1.26 µM (inconclusive)

Q: And the IC50 [6]?
A: 5.86 µM (active)

Q: And the AC50 (Cytochrome P450 2C9)?
A: inconclusive

Q: For `Cn1c(NCCc2ccccc2)cc(=O)n(C)c1=O`, which EC50 (cells [7]) is on record?
A: > 29.9 µM (inactive)

Q: What about the IC50 (cells [8]) of the same compound?
A: > 29.9 µM (inactive)

Q: What about the IC50 (Coagulation factor XII) of the same compound?
A: > 50 µM (inactive)

Q: With `CC(=O)NCCNc1nc(-c2ccccc2C)nc2ccccc12` as the compound, how does the AC50 (Cytochrome P450 2C9) read?
A: inconclusive

Q: For `Cc1ccc(C)c(-n2nc3c4c(ccc3c2O)C(=O)c2ccccc2C4=O)c1`, which IC50 (HEK293 [9]) is on record?
A: > 20 µM (inactive)

Q: What about the IC50 (HEK293 [10]) of the same compound?
A: 18 µM (inactive)

Q: And the EC50 (HEK293 [11])?
A: 11.1 µM (active)

Q: What about the IC50 (HEK293 [12]) of the same compound?
A: > 20 µM (inactive)

Q: For `CN(C)Cc1c[nH]c2ncnc(O)c12`, which AC50 (Cytochrome P450 2D6) is on record?
A: inconclusive

Q: With `Cc1noc(C)c1-c1cc(NC2CCNCC2)ncn1` as the compound, how does the AC50 (Cytochrome P450 3A4 [13]) read?
A: inconclusive

Q: What about the AC50 (Cytochrome P450 2C9) of the same compound?
A: inconclusive

Q: And the AC50 (Cytochrome P450 1A2)?
A: 0.126 µM (inconclusive)

Q: What about the AC50 (Cytochrome P450 2C19) of the same compound?
A: inconclusive

Q: What does the source list for `CCOC(=O)N1CCC(NS(=O)(=O)c2ccc3c(c2)C(C)(C)C(=O)N3C)CC1`?
A: AC50 (Cytochrome P450 3A4 [5]): 15.8 µM (inconclusive); EC50 [14]: > 260 µM (inactive); AC50 (Cytochrome P450 2C9): inconclusive; AC50 (Cytochrome P450 2C19; read-out: AC50): 11.2 µM (inconclusive)
